Measurements taken from ChEMBL document CHEMBL4680375 (ACS Med Chem Lett, 2021).
Activity calls are given as the source filed them. The rule behind the calls is not given here.

Tests used:
[1] = biological target: T1, NAD-dependent protein deacetylase sirtuin-1 (Homo sapiens, UniProt Q96EB6); test: Inhibition of N-terminal hexa-His-tagged human SIRT1 (156 to 664 residues) expressed in Escherichia coli BL21 (DE3) assessed as deacetylation of Abz-labeled acetyl peptide using Abz-GVLKacAYNO2GY-NH2 peptide as substrate incubated for 30 mins in presence of NAD+ by fluorescence microplate reader assay
T1 sequence (Q96EB6 whole entry): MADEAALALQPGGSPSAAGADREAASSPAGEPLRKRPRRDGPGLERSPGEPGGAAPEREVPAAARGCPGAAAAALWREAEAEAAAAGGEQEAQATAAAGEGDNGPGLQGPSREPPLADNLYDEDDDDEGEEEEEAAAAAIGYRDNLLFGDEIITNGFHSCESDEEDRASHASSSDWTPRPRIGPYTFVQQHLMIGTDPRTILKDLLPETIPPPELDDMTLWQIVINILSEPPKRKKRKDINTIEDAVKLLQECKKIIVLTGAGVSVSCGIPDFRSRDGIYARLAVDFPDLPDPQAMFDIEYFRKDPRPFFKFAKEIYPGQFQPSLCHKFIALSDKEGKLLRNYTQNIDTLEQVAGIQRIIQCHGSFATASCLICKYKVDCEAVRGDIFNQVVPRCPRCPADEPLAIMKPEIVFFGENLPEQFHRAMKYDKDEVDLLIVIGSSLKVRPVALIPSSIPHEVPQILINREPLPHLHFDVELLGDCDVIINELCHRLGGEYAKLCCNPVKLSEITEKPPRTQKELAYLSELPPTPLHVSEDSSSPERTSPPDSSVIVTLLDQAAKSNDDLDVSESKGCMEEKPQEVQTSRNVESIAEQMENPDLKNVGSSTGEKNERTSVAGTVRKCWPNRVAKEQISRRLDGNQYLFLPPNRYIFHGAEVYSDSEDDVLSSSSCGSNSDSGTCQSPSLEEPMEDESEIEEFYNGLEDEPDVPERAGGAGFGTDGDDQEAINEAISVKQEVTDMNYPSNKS

[2] = biological target: T2, NAD-dependent protein deacetylase sirtuin-2 (Homo sapiens, UniProt Q8IXJ6); test: Inhibition of GST-fusion tagged human SIRT2 (34 to 356 residues) expressed in Escherichia coli BL21 (DE3) using Abz-GVLKacAYNO2GY-NH2 peptide as substrate incubated for 30 mins in presence of NAD+ by fluorescence microplate reader assay
T2 sequence (Q8IXJ6 whole entry): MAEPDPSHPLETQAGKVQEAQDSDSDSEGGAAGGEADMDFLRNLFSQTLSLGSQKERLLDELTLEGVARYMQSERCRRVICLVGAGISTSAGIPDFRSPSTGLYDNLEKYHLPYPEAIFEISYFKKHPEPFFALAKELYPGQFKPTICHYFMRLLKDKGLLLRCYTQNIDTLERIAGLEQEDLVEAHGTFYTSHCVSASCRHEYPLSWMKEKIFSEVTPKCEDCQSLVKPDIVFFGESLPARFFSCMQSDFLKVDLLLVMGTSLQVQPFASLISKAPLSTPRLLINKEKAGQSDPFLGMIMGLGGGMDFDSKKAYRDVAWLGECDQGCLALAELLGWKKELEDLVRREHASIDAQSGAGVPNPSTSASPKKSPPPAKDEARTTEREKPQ

[3] = biological target: NAD-dependent protein deacylase sirtuin-5, mitochondrial (Homo sapiens, UniProt Q9NXA8); test: Inhibition of N-terminal 8His-tagged human SIRT5 (34 to 302 residues) expressed in Escherichia coli Rosetta2 (DE3) using Abz-GVLKacAYNO2GY-NH2 peptide as substrate incubated for 30 mins in presence of NAD+ by fluorescence microplate reader assay
[4] = biological target: NAD-dependent protein deacylase sirtuin-6 (Homo sapiens, UniProt Q8N6T7); test: Inhibition of recombinant N-terminal hexa-His-tagged SIRT6 (3 to 318 residues) (unknown origin) expressed in Escherichia coli BL21 (DE3) using RHKKac-AMC as substrate incubated for 2 hrs in presence of NAD+ by fluorescence microplate reader assay
[5] = biological target: T3, NAD-dependent protein deacetylase sirtuin-1 (Homo sapiens) (UniProt Q96EB6); test: Inhibition of SIRT1 in human SH-SY5Y cells assessed as increase in acetylated p53 level at 10 uM measured after 72 hrs in presence of ATRA by Western blot analysis; type: cell-based
T3 sequence (whole entry): T1 sequence (Q96EB6 whole entry)

[6] = biological target: T3, NAD-dependent protein deacetylase sirtuin-1 (Homo sapiens); test: Inhibition of SIRT1 in human SH-SY5Y cells assessed as increase in acetylated p53 level at 10 uM by Western blot analysis; type: cell-based
[7] = biological target: T3, NAD-dependent protein deacetylase sirtuin-1 (Homo sapiens); test: Inhibition of SIRT1 in human SH-SY5Y cells assessed as increase in ratio of acetylated p53 to p53 level by Western blot analysis; type: cell-based; conditions: dose 0.1-50 µM

Sequence of NAD-dependent protein deacylase sirtuin-6 (Q8N6T7 whole entry, the tested form may be a part): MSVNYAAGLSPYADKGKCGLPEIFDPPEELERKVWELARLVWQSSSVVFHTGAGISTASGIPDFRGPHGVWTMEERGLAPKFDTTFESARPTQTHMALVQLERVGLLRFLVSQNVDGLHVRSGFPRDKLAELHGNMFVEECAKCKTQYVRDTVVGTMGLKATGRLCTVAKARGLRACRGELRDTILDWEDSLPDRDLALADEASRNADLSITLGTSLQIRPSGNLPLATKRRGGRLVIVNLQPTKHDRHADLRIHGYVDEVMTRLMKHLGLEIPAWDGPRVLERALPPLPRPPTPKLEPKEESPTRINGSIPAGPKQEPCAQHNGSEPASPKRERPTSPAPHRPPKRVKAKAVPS
Sequence of NAD-dependent protein deacylase sirtuin-5, mitochondrial (Q9NXA8 whole entry, the tested form may be a part): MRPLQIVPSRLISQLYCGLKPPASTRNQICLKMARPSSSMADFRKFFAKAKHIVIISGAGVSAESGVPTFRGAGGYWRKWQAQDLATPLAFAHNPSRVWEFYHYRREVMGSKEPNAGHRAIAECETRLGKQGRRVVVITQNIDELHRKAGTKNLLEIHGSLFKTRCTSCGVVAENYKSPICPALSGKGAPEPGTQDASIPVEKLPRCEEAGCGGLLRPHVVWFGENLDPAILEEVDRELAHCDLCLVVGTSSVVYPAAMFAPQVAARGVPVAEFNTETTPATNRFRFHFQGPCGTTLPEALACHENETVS

SMILES	IC50 ([1]; read-out: IC50) [µM]	other results
O=C1OC(c2ccccc2)OC(=O)C1=Cc1ccc(O)cc1 (stereo not given)	6.33	–
COc1cc(OC)c(C=C2C(=O)OC(C)(c3ccccc3)OC2=O)cc1Br (stereo not given)	13.6	–
COc1cc(C=C2C(=O)OC(C)(c3ccccc3)OC2=O)ccc1OCc1cccc(C(=O)O)c1 (stereo not given)	12.9	–
Nc1c(I)cc(C=C2C(=O)OC(c3ccccc3)OC2=O)cc1I (stereo not given)	10.2	–
CC(C)Oc1cccc(C=C2C(=O)OC(c3ccccc3)OC2=O)c1 (stereo not given)	14	–
COc1ccc(C=C2C(=O)OC(c3ccccc3)OC2=O)c(OC)c1OC (stereo not given)	15.8	–
O=C1OC(c2ccccc2)OC(=O)C1=Cc1ccc(Cl)cc1 (stereo not given)	18.8	–
CCOc1cc(C=C2C(=O)OC(c3ccccc3)OC2=O)ccc1O (stereo not given)	5.49	–
COc1ccccc1C=C1C(=O)OC(C)(c2ccccc2)OC1=O (stereo not given)	14.4	–
O=C1OC(c2ccccc2)OC(=O)C1=Cc1ccc(O)c(F)c1 (stereo not given)	4.65	–
O=C1OC(c2ccccc2)OC(=O)C1=Cc1cc(F)c(O)c(F)c1 (stereo not given)	4.54	–
CC1(c2ccccc2)OC(=O)C(=Cc2ccccc2)C(=O)O1 (stereo not given)	–	IC50 [1]: Not Active
CCOc1cc(C=C2C(=O)OC(C)(c3ccccc3)OC2=O)ccc1O (stereo not given)	7.92	–
CC1=C(/C=C/C(C)=C/C=C/C(C)=C/C(=O)O)C(C)(C)CCC1	–	inhibition [6]: inactive
NC(=O)[C@@H]1CCCc2c1[nH]c1ccc(Cl)cc21	–	IC50 [3]: Not Active; IC50 [4]: Not Active
Cc1cc(C=C2C(=O)OC(c3ccccc3)OC2=O)ccc1O (stereo not given)	5.41	–
CC(C)(C)c1cc(C=C2C(=O)OC(c3ccccc3)OC2=O)cc(C(C)(C)C)c1O (stereo not given)	19	–
COc1cc(C=C2C(=O)OC(c3ccccc3)OC2=O)ccc1OCc1ccc2c(c1)OCO2 (stereo not given)	8.14	–
COc1ccc(OC)c(C=C2C(=O)OC(C)(c3ccccc3)OC2=O)c1 (stereo not given)	16.8	–
COc1cc(C=C2C(=O)OC(c3ccccc3)OC2=O)cc(OC)c1O (stereo not given)	11.9	–
Nc1c(Br)cc(C=C2C(=O)OC(c3ccccc3)OC2=O)cc1Br (stereo not given)	7.63	–
O=C1OC(c2ccccc2)OC(=O)C1=Cc1ccc(OCc2cccc(C(=O)O)c2)cc1 (stereo not given)	10	–
CC1(c2ccccc2)OC(=O)C(=Cc2ccc(O)cc2)C(=O)O1 (stereo not given)	7.06	–

The remaining molecules from weak to strong by IC50 ([1]; read-out: IC50), led by results:

IC50 ([1]; read-out: IC50) [µM]	SMILES	other results
4.4	Cc1cc(C=C2C(=O)OC(c3ccccc3)OC2=O)c(C)cc1O (stereo not given)	–
3.84	O=C1OC(c2ccccc2)OC(=O)C1=Cc1ccc(O)c(Cl)c1 (stereo not given)	–
3.76	O=C1OC(c2ccccc2)OC(=O)C1=Cc1ccc(O)cc1F (stereo not given)	–
3.69	CCOc1cc(C=C2C(=O)OC(c3ccccc3)OC2=O)cc([N+](=O)[O-])c1O (stereo not given)	–
3.56	O=C1OC(c2ccccc2)OC(=O)C1=Cc1ccc(O)cc1Br (stereo not given)	–
3.52	COc1cc(C=C2C(=O)OC(c3ccccc3)OC2=O)c(Br)cc1O (stereo not given)	–
3.49	COc1cc(C=C2C(=O)OC(c3ccccc3)OC2=O)cc([N+](=O)[O-])c1O (stereo not given)	–
3.1	CCc1cc(C=C2C(=O)OC(c3ccccc3)OC2=O)cc(CC)c1O (stereo not given)	–
3.07	Cc1cc(C=C2C(=O)OC(c3ccccc3)OC2=O)cc(C)c1O (stereo not given)	–
2.66	COc1cc(C=C2C(=O)OC(c3ccccc3)OC2=O)cc(C(=O)OCc2ccccc2)c1O (stereo not given)	–
2.52	O=C1OC(c2ccccc2)OC(=O)C1=Cc1ccc(O)c(OCc2ccccc2)c1 (stereo not given)	–
2.48	O=C1OC(c2ccccc2)OC(=O)C1=Cc1ccc(O)c(OCC2CC2)c1 (stereo not given)	–
2.47	COc1cc(C=C2C(=O)OC(c3ccccc3)OC2=O)cc(Cc2ccccc2)c1O (stereo not given)	–
1.9	COc1cc(C=C2C(=O)OC(c3ccccc3)OC2=O)cc(Cl)c1O (stereo not given)	increase in acetylated p53 level (qualitative) [5]: Active
1.4	O=C1OC(c2ccccc2)OC(=O)C1=Cc1ccc(O)c(Br)c1 (stereo not given)	–
1.2	O=C1OC(c2ccccc2)OC(=O)C1=Cc1cc(Cl)c(O)c(Cl)c1 (stereo not given)	IC50 [2]: 56.4 µM; IC50 ([3]; read-out: IC50): 37.4 µM; IC50 [4]: Not Active; increase in acetylated p53 level (qualitative) [5]: Active
1.14	CCOc1cc(C=C2C(=O)OC(c3ccccc3)OC2=O)cc(Br)c1O (stereo not given)	–
0.89	COc1cc(C=C2C(=O)OC(c3ccccc3)OC2=O)cc(I)c1O (stereo not given)	IC50 [2]: 49.4 µM; IC50 ([3]; read-out: IC50): 22.4 µM; IC50 [4]: Not Active; increase in acetylated p53 level (qualitative) [5]: Active
0.7	O=C1OC(c2ccccc2)OC(=O)C1=Cc1cc(Br)c(O)c(Br)c1 (stereo not given)	–
0.68	O=C1OC(c2ccccc2)OC(=O)C1=Cc1cc(Br)c(O)c(OCc2ccccc2)c1 (stereo not given)	–
0.61	O=C1OC(c2ccccc2)OC(=O)C1=Cc1cc(I)c(O)c(OCc2ccccc2)c1 (stereo not given)	–
0.46	O=C1OC(c2ccccc2)OC(=O)C1=Cc1cc(I)c(O)c(I)c1 (stereo not given)	IC50 [2]: 52.2 µM; IC50 ([3]; read-out: IC50): 4.98 µM; IC50 [4]: Not Active; increase in acetylated p53 level (qualitative) [5]: Active; inhibition [7]: Dose-dependent effect
